Reference: PubChem BioAssay (NCI)
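In this assay, cells in 96-well plates receive the compound at five concentrations for 48 hours. Endpoints are linearly interpolated between the surrounding concentrations. Abbreviation: GI50, concentration required for 50% inhibition of growth. TGI: concentration producing complete growth inhibition.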

Columns and labels:
Assay in all cases: NCI anticancer screen, dose series, 48 h
[1] = tested on: A549 NSCLC
[2] = tested on: HOP-92 NSCLC
[3] = tested on: K-562 leukemia
[4] = tested on: NCI-H23 lung
[5] = tested on: OVCAR-4 ovarian
[6] = tested on: SF-539 CNS
[7] = tested on: CCRF-CEM leukemia
[8] = tested on: LOX IMVI melanoma
[9] = tested on: BT-549 breast
[10] = tested on: T-47D breast

Row | Structure (SMILES) | TGI [1] [µM] | TGI [2] [µM] | TGI [3] [µM] | TGI [4] [µM] | TGI [5] [µM] | TGI [6] [µM] | TGI [7] [µM] | TGI [8] [µM] | GI50 [1] [µM] | GI50 [7] [µM] | GI50 [3] [µM] | GI50 [8] [µM] | GI50 [4] [µM] | GI50 [5] [µM] | GI50 [9] [µM] | TGI [9] [µM] | GI50 [6] [µM] | GI50 [10] [µM] | TGI [10] [µM] | GI50 [2] [µM]
1 | Nc1c(-c2ccc(Br)cc2)[n+]([O-])c2ccccc2[n+]1[O-] | > 100 | > 100 | > 100 | > 100 | > 100 | > 100 |  |  |  |  |  |  |  |  |  |  |  |  |  | 
2 | O=C(/C=C/c1ccccc1Cl)c1ccccc1Cl | 61.5 | 77.2 | 47.7 | 52.9 | 41.3 | 36.7 | 44.9 |  |  |  |  |  |  |  |  |  |  |  |  | 
3 | CN(C)C(=S)/N=c1\ss/c(=N\C(=S)N(C)C)n1-c1ccc2c(c1)OCO2 | > 100 |  | > 100 | > 100 | > 100 | > 100 |  | > 100 |  |  |  |  |  |  |  |  |  |  |  | 
4 | Cc1ccc(C(=O)/C=C/c2ccccc2O)c(C)c1 | > 100 | > 100 | > 100 | > 100 | > 100 | > 100 | > 100 | > 100 |  |  |  |  |  |  |  |  |  |  |  | 
5 | N#CCCN(CCC#N)c1ccc(/C=C2\N=C(CN3C(=O)c4ccccc4C3=O)OC2=O)cc1 | > 100 |  | > 100 |  | > 100 | > 100 |  | > 100 |  |  |  |  |  |  |  |  |  |  |  | 
6 | CC(=O)c1ccc(NC(=O)/C(Cc2ccccn2)=N/NC(=O)C[N+](C)(C)C)cc1 | > 100 |  | > 100 | > 100 | > 100 | > 100 | > 100 | > 100 |  |  |  |  |  |  |  |  |  |  |  | 
7 | CC(C)=[CH][Sb]([Br])([CH]=C(C)C)([CH]=C(C)C)[CH]=C(C)C | > 100 |  | > 100 | 46.7 | > 100 |  | > 100 | > 100 | 19.1 | 4.8 | 6.7 | 31.6 | 6.12 | 22.7 |  |  |  |  |  | 
8 | Cc1cccc(C(C)(C)C)c1NC(=O)CCc1n[nH]c(=S)o1 | > 100 | > 100 | > 100 | > 100 | > 100 | > 100 | > 100 |  |  |  |  |  |  |  |  |  |  |  |  | 
9 | O=C(C[C@@H](C(=O)NCc1cccc(C(F)(F)F)c1)N1C(=O)[C@@H](N2C(=O)OC[C@@H]2c2ccccc2)[C@H]1/C=C/c1ccccc1)NC1CCN(Cc2ccccc2)CC1 | 21.4 |  | 4.17 | 17.6 | 4.43 | 3.98 | 7.84 | 18.9 | 5.86 | 2.79 | 1.77 | 4.03 | 4.19 | 1.77 | 2.96 | 8.81 | 2.03 | 15.7 | 38.9 | 
10 | O=C1C2=C(CC3C(C2)C3(Br)Br)C(=O)C2=C1CC1C(C2)C1(Br)Br (stereo unspecified) | > 100 | > 100 | > 100 | > 100 | > 100 | > 100 | > 100 | > 100 |  |  |  |  |  |  |  |  |  |  |  | 
11 | CSc1ccc(/C=C2/C[N+](C)(C)C/C(=C/c3ccc(SC)cc3)C2=O)cc1 | > 100 | 42.1 | > 100 |  |  | 34 | 31.5 |  |  |  |  |  |  |  |  |  |  |  |  | 
12 | NCCCNCCSSCCCCS(=O)O | > 100 | > 100 | > 100 | 43.5 | 28.2 | > 100 |  | 21.6 |  |  |  |  |  |  |  |  |  |  |  | 
13 | COc1cc(Cc2cc(OC)c(OC)c(OC)c2)ccc1O | > 100 | > 100 | > 100 | > 100 | > 100 | 56.2 | > 100 | > 100 |  |  |  |  |  |  |  |  |  |  |  | 
14 | CCN(CC)C(=O)C/C(C)=N/NC(=O)c1ccncc1 | > 100 | > 100 | > 100 | > 100 |  | > 100 | > 100 | > 100 |  |  |  |  |  |  |  |  |  |  |  | 
15 | CCOC(=O)NC(=O)c1cn(CCCOC(=O)NCCCCCCNC(=O)OCCCn2c(=O)c(C(=O)NC(=O)OCC)cn(C)c2=O)c(=O)n(C)c1=O | > 100 | > 100 | > 100 | > 100 | > 100 |  | > 100 | > 100 |  |  |  |  |  |  |  |  |  |  |  | 
16 | COC(=O)C1=C(c2ccc3c(c2)OCO3)O[C@H](c2ccc3c(c2)OCO3)[C@H]1COC(C)=O | > 100 | > 100 | > 100 | > 100 | > 100 | > 100 | > 100 | > 100 |  |  |  |  |  |  |  |  |  |  |  | 
17 | COC(=O)CSc1n[nH]c(-c2ccc(O)c([N+](=O)[O-])c2)n1 | > 100 | > 100 | > 100 | > 100 | > 100 | > 100 | > 100 | > 100 |  |  |  |  |  |  |  |  |  |  |  | 
18 | COc1ccc(OC)c(/C=C/NC=O)c1 | > 100 | > 100 | > 100 | > 100 | > 100 | > 100 | > 100 | > 100 |  |  |  |  |  |  |  |  |  |  |  | 
19 | CC(C)=CC(=O)N1CCN(C(=O)C=C(C)C)CC1 | > 100 | > 100 | > 100 | > 100 | > 100 | > 100 | > 100 | > 100 |  |  |  |  |  |  |  |  |  |  |  | 
20 | O=S(O)CCCCSSCCCCSSCCCCS(=O)O | > 100 |  | > 100 | > 100 | 33.9 | > 100 | 64.6 | > 100 |  |  |  |  |  |  |  |  |  |  |  | 
21 | CCCCCCCCCCCCCCCCOP(=O)(O)Oc1ccc(/C=C\c2ccc(OP(=O)(O)OCCCCCCCCCCCCCCCC)cc2)cc1 | > 100 | 67.1 | > 100 | > 100 | > 100 |  | 88.7 | > 100 |  |  |  |  |  |  |  |  |  |  |  | 
22 | COc1ccc(C(=O)O)c(Cc2cccc3ccccc23)c1 | > 100 |  | > 100 | > 100 | > 100 |  | > 100 | > 100 |  |  |  |  |  |  |  |  |  |  |  | 
23 | CNC=O.[O]=[Ge].[O]=[Ge].[O]=[Ge].[O]=[Ge][OH].[O]=[Ge][OH] | > 100 | > 100 | > 100 | > 100 | > 100 | > 100 | > 100 | > 100 |  |  |  |  |  |  |  |  |  |  |  | 
24 | COc1cc(Cn2c(-c3ccccc3)cc3c2-c2oncc2CC3)cc(OC)c1OC | > 100 | > 100 | > 100 | > 100 | > 100 | 10.3 | > 100 | > 100 | 1.15 | 0.857 | 0.364 | 0.831 | 2.57 | 3.12 |  |  | 0.735 | 1.07 | 81.2 | 12.7
